Earlier results as cited in publication PMC9851200, “Multiparameter phenotypic screening for endogenous TFEB and TFE3 translocation identifies novel chemical series modulating lysosome function” (Autophagy, 2022).

What was measured:
Design in all cases: method as in original PKIS2 published data
[1] = target: T1, kinases (KINOMEscan panel) (Homo sapiens, UniProt Q99640); settings: kinase PKMYT1; Published KINOMEscan; ref original PKIS2 published data; cited from earlier work
T1 sequence (Q99640 1-499): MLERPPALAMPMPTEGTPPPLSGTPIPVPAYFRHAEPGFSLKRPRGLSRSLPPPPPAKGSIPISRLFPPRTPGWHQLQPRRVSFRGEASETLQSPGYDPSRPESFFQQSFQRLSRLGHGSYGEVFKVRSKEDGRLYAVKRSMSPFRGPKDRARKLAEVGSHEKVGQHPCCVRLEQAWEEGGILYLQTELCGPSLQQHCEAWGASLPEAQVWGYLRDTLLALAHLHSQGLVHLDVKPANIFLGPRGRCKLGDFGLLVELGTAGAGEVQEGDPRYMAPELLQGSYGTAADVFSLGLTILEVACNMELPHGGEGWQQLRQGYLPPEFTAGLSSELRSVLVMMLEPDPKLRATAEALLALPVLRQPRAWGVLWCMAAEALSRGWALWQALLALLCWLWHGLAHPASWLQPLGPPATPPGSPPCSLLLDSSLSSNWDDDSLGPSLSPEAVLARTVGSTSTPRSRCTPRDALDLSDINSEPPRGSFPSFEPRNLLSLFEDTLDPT

[2] = target: T2, kinases (KINOMEscan panel) (Homo sapiens, UniProt P51817); settings: kinase PRKX; Published KINOMEscan; ref original PKIS2 published data; cited from earlier work
T2 sequence (P51817 1-358): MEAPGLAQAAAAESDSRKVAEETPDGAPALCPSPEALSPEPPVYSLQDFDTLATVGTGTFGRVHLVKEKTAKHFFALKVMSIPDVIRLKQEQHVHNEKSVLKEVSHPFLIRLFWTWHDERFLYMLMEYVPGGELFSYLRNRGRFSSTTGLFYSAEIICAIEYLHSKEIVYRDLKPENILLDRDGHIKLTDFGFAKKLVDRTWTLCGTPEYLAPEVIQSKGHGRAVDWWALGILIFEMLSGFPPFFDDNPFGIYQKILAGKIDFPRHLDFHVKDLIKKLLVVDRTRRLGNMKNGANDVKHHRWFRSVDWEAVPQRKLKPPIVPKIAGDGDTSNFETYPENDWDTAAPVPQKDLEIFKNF

[3] = target: kinases (KINOMEscan panel) (Homo sapiens, UniProt O75116); settings: kinase ROCK2; Published KINOMEscan; ref original PKIS2 published data; cited from earlier work
Sequence of kinases (KINOMEscan panel) (Homo sapiens, UniProt O75116) (O75116 whole entry): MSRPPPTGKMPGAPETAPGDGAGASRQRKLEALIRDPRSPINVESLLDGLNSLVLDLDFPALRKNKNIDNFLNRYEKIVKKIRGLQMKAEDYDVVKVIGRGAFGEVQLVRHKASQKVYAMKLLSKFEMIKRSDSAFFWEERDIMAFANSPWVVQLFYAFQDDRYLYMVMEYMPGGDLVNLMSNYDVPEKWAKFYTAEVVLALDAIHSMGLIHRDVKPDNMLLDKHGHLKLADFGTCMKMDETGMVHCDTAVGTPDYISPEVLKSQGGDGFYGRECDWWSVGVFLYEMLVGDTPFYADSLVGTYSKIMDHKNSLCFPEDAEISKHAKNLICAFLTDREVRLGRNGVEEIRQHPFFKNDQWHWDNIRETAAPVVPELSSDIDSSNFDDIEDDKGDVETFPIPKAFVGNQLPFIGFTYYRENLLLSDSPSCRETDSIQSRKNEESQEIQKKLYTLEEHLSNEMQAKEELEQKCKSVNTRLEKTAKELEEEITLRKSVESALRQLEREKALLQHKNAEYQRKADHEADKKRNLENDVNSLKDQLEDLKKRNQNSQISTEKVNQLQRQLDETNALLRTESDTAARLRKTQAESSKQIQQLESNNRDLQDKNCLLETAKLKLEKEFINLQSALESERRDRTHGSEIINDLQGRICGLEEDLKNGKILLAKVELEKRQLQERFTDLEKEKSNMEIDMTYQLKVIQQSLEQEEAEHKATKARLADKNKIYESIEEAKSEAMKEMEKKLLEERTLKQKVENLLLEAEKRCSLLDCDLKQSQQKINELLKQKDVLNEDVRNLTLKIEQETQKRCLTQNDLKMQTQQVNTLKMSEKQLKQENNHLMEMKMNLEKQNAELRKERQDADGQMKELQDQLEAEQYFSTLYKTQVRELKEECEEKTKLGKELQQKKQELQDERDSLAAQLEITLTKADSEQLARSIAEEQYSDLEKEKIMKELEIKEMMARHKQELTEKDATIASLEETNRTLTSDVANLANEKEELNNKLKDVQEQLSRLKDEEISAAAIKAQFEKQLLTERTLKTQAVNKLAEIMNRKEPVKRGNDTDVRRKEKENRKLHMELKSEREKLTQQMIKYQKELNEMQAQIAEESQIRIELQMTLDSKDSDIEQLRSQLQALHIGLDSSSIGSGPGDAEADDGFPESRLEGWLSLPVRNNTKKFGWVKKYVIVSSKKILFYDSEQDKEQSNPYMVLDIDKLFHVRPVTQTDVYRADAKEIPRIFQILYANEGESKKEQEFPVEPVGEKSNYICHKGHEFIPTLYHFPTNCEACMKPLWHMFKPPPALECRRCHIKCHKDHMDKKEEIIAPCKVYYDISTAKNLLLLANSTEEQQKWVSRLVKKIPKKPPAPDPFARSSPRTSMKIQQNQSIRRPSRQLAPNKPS

[4] = target: T3, kinases (KINOMEscan panel) (Homo sapiens, UniProt Q96BR1); settings: kinase SGK3; Published KINOMEscan; ref original PKIS2 published data; cited from earlier work
T3 sequence (Q96BR1 1-496): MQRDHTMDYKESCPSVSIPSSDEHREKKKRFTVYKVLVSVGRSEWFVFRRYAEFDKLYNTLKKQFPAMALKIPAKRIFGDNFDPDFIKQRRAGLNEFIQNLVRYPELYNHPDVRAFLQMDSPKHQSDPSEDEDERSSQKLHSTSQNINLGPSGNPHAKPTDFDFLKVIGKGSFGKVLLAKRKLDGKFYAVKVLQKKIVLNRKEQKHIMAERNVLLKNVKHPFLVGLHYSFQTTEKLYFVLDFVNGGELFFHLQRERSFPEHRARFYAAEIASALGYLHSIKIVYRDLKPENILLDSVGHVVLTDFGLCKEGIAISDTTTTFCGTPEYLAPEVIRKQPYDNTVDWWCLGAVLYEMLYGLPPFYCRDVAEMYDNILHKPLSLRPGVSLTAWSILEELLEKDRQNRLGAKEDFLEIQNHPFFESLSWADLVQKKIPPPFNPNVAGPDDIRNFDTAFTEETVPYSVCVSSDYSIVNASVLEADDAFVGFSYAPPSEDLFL

[5] = target: kinases (KINOMEscan panel) (Homo sapiens, UniProt Q9H422); settings: kinase HIPK3; Published KINOMEscan; ref original PKIS2 published data; cited from earlier work
Sequence of kinases (KINOMEscan panel) (Homo sapiens, UniProt Q9H422) (Q9H422 whole entry): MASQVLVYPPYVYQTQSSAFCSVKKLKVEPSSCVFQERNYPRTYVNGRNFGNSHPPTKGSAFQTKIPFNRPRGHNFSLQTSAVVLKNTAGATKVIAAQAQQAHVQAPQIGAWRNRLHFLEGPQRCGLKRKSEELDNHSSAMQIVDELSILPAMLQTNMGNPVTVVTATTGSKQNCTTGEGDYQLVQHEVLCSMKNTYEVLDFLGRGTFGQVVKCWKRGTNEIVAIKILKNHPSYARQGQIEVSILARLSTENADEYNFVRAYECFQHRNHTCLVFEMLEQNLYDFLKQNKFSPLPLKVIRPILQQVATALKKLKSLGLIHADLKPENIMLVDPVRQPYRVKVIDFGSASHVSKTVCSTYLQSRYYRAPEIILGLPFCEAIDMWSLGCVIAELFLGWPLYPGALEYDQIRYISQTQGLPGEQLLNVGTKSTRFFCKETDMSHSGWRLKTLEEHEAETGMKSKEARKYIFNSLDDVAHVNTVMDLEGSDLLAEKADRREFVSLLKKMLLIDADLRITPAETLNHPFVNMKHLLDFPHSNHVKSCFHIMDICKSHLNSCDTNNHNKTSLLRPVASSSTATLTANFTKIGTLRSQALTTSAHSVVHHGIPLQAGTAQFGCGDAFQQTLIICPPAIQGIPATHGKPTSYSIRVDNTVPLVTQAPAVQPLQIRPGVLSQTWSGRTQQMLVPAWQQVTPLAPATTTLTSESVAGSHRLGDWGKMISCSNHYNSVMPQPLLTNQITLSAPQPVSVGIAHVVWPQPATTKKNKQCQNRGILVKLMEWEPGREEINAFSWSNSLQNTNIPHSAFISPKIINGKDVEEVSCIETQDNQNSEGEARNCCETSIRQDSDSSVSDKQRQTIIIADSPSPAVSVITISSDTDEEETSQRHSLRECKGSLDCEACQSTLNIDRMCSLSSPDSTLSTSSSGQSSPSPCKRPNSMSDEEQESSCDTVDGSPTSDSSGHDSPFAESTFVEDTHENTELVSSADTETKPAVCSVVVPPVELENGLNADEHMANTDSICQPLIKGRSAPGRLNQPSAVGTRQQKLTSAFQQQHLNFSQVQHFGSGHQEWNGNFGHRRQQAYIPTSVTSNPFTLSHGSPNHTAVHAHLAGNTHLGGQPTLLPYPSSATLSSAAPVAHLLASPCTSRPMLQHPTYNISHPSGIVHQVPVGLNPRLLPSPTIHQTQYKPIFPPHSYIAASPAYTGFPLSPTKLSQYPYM

Cc1cccc(-c2nc(Nc3ccncc3)c3ccccc3n2)n1 [NK215]
0: KINOMEscan PKMYT1 [1] | KINOMEscan PRKX [2] | KINOMEscan ROCK2 [3] | KINOMEscan SGK3 [4] | KINOMEscan HIPK3 [5]
